Test results from patent publication US7582649B2, “Hydroxy alkyl substituted 1,3,8-triazaspiro[4.5]decan-4-one derivatives useful for the treatment of ORL-1 receptor mediated disorders” (Janssen Pharmaceutica, NV, priority 2002, dated 2009).
Where “and” joins values, the source holds several entries; their conditions need not be identical. Identical values can stand only once. Like-named read-outs stand apart in the source and are kept apart here.

Assays:
[1] = system: Long-Evans Hooded rats; assay: Stress induced hyperthermia (SIH) in vivo assay, rectal temperature; parameters: species or system rat
Method: (§1) Male Long-Evans Hooded rats weighing 180 to 200 grams at the time of purchase were obtained from Charles River Laboratories (Raleigh, N.C.). Upon arrival, the animals were group housed four per cage in quarantine for 5 days in wire-mesh cages at an ambient temperature of 21 to 23° C. with an automated 12/12 hour light/dark cycle and ad libitum access to water and a commercial rodent chow. The rats were then transferred to a general housing room for a one-week acclimation with housing and environmental conditions, and 12/12 hour light/dark cycle conditions. Animals were fasted overnight (18 hours) prior to experiment.
[…] One hour after dosing, baseline rectal temperatures were recorded for each rat. Rats were then immediately isolated in shoebox cages with ALPHA-DRY bedding. Rectal temperatures were then recorded at 15 min, 30 min, and 45 min after isolation (i.e., 1 hr 15 min, 1 hr 30 min, and 1 hr 45 minutes after test compound or vehicle administration). All experiments were conducted during the light cycle. After completion of the behavioral portion of the study, each animal was killed via decapitation using a guillotine and trunk blood was collected in 5 mL vacutainer tube containing EDTA and placed on ice. The samples were then centrifuged at 3800 RPM for 10 minutes and plasma was removed and placed on dry ice in an Eppendorff sample tube. Plasma samples were stored at −80° C. and later used for determining ACTH, corticosterone, and glucose levels. Plasma samples were outsourced to Anilytics, Inc. for determination of plasma levels of ACTH, coricosterone, and glucose. A Mann-Whitney U t-test (one-tailed) was used for statistical analysis of behavioral data and an unpaired t-test (one-tailed) was used for analysis of plasma ACTH, corticosterone, and glucose levels.
Compound #438 was suspended in an aqueous vehicle comprised of 0.5% (w/v) methylcellulose (15 centipoises) solution.

[2] = system: Long-Evans Hooded rats; assay: Plasma stress hormone levels (ACTH, corticosterone, glucose) after SIH; type: in vivo, rat; settings: p.o.
Method: as §1
On the day of experiment, group-housed (4/group) Long-Evans Hooded rats were divided into various treatment groups (N=8 to 32) and test compound at 0.03-3.0 mg/kg or vehicle was administered orally (p.o.) by gavage in a dose volume equivalent to 5 mL/kg. One hour after dosing, baseline rectal temperatures were recorded for each rat. Rats were then immediately isolated in shoebox cages with ALPHA-DRY bedding. Rectal temperatures were then recorded at 15 min, 30 min, and 45 min after isolation (i.e., 1 hr 15 min, 1 hr 30 min, and 1 hr 45 minutes after test compound or vehicle administration). All experiments were conducted during the light cycle. […]

[3] = system: Long-Evans Hooded rats; settings: male, rat, in vivo, po
[4] = system: Long-Evans Hooded rats; settings: rat, in vivo, po; for Total Entries (EPM), % Change / Total Entries (EPM), Mean: male, Long-Evans Hooded
[5] = target: kappa opioid receptor (Homo sapiens, UniProt P41145); assay: Filtration binding assay: kappa opioid receptor
Sequence of kappa opioid receptor (P41145 whole entry): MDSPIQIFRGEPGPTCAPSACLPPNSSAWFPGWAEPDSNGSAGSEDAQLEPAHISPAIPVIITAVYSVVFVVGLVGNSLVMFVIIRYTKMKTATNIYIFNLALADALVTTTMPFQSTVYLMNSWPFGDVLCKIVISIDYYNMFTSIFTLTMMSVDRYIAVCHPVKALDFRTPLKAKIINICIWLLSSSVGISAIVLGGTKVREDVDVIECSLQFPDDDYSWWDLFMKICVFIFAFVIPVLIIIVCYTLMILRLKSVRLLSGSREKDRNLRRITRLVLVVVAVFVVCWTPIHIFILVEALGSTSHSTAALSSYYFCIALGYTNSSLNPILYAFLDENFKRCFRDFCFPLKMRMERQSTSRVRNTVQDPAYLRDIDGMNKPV

[6] = target: mu opioid receptor (Homo sapiens, UniProt P35372); assay: Filtration binding assay: mu opioid receptor
Sequence of mu opioid receptor (P35372 whole entry): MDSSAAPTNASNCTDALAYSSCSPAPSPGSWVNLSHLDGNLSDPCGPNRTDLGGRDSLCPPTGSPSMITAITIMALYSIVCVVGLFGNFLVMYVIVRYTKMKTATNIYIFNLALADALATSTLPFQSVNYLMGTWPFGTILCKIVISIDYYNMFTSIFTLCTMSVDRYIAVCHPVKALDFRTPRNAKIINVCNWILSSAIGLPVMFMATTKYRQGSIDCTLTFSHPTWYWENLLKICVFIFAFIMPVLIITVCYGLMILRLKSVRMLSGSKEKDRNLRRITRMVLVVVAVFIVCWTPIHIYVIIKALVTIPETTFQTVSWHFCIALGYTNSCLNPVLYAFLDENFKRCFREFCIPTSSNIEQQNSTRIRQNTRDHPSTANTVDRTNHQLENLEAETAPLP

Question: Which “Rectal Temp., Mean” value ([1]; 0.03 mg/kg p.o., 0 (Basal), 1 hr after dosing) does the source give for `Cc1cccc2cccc(CN3CCC4(CC3)C(=O)N(C[C@H](O)CN)CN4c3ccc(F)cc3)c12` [Compound #438, 3-(3-Amino-2-(R)-hydroxy-propyl)-1-(4-fluoro-phenyl)-8-(8-methyl-naphthalen-1-ylmethyl)-1,3,8-triaza-spiro[4.5]decan-4-one] here?
Answer: 37.5 °C

Question: What about the “Rectal Temp., Mean” value ([1]; 0.03 mg/kg p.o., 15 min after isolation) of the same compound?
Answer: 38.7 °C

Question: And the “Rectal Temp., Mean” value ([1]; 0.03 mg/kg p.o., 30 min after isolation)?
Answer: 38.6 °C

Question: And the “Rectal Temp., Mean” value ([1]; 0.03 mg/kg p.o., 45 min after isolation)?
Answer: 38.4 °C

Question: And the “Rectal Temp., Mean” value ([1]; 0.1 mg/kg p.o., 0 (Basal), 1 hr after dosing)?
Answer: 37.2 °C

Question: What about the “Rectal Temp., Mean” value ([1]; 0.1 mg/kg p.o., 15 min after isolation) of the same compound?
Answer: 38.4 °C

Question: What about the “Rectal Temp., Mean” value ([1]; 0.1 mg/kg p.o., 30 min after isolation) of the same compound?
Answer: 38.5 °C

Question: And the “Rectal Temp., Mean” value ([1]; 0.1 mg/kg p.o., 45 min after isolation)?
Answer: 38.5 °C

Question: What about the “Rectal Temp., Mean” value ([1]; 0.3 mg/kg p.o., 0 (Basal), 1 hr after dosing) of the same compound?
Answer: 37.4 °C

Question: What about the “Rectal Temp., Mean” value ([1]; 0.3 mg/kg p.o., 15 min after isolation) of the same compound?
Answer: 38.4 °C

Question: What about the “Rectal Temp., Mean” value ([1]; 0.3 mg/kg p.o., 30 min after isolation) of the same compound?
Answer: 38.5 °C

Question: What about the “Rectal Temp., Mean” value ([1]; 0.3 mg/kg p.o., 45 min after isolation) of the same compound?
Answer: 38.3 °C

Question: What about the “Rectal Temp., Mean” value ([1]; 1.0 mg/kg p.o., 0 (Basal), 1 hr after dosing) of the same compound?
Answer: 37.1 °C

Question: What about the “Rectal Temp., Mean” value ([1]; 1.0 mg/kg p.o., 15 min after isolation) of the same compound?
Answer: 38.4 °C

Question: And the “Rectal Temp., Mean” value ([1]; 1.0 mg/kg p.o., 30 min after isolation)?
Answer: 38.5 °C

Question: And the “Rectal Temp., Mean” value ([1]; 1.0 mg/kg p.o., 45 min after isolation)?
Answer: 38.2 °C

Question: And the “Rectal Temp., Mean” value ([1]; 3.0 mg/kg p.o., 0 (Basal), 1 hr after dosing)?
Answer: 37.0 °C

Question: What about the “Rectal Temp., Mean” value ([1]; 3.0 mg/kg p.o., 15 min after isolation) of the same compound?
Answer: 38.2 °C

Question: What about the “Rectal Temp., Mean” value ([1]; 3.0 mg/kg p.o., 30 min after isolation) of the same compound?
Answer: 38.4 °C

Question: And the “Rectal Temp., Mean” value ([1]; 3.0 mg/kg p.o., 45 min after isolation)?
Answer: 38.2 °C

Question: What about the “rectal temperature in the SIH model” value ([1]; p.o., at 0.03 mg/kg, 0.01 mg/kg, 0.3 mg/kg, 1.0 mg/kg and 3.0 mg/kg) of the same compound?
Answer: attenuation of rectal temperature

Question: What about the “changes in the plasma levels of corticosterone” value [2] of the same compound?
Answer: not statistically significant

Question: And the “reduction in plasma ACTH levels” value ([2]; 0.3 mg/kg, P=0.0170)?
Answer: 25%

Question: And the “Horizontal Activity (SMA), % Change” value ([3]; 0.03 mg/kg)?
Answer: 9.9%

Question: And the “Horizontal Activity (SMA), Mean” value ([3]; 0.03 mg/kg)?
Answer: 3565

Question: And the “Vertical Movement (SMA), % Change” value ([3]; 0.03 mg/kg)?
Answer: 12.5%

Question: And the “Vertical Movement (SMA), Mean” value ([3]; 0.03 mg/kg)?
Answer: 54.8

Question: And the “Horizontal Activity (SMA), % Change” value ([3]; 10 mg/kg)?
Answer: −4.0%

Question: What about the “Horizontal Activity (SMA), Mean” value ([3]; 10 mg/kg) of the same compound?
Answer: 3115

Question: What about the “Vertical Movement (SMA), % Change” value ([3]; 10 mg/kg) of the same compound?
Answer: 11.9%

Question: What about the “Vertical Movement (SMA), Mean” value ([3]; 10 mg/kg) of the same compound?
Answer: 54.5

Question: What about the “Horizontal Activity (SMA), % Change” value ([3]; 30 mg/kg) of the same compound?
Answer: −15.8%

Question: What about the “Horizontal Activity (SMA), Mean” value ([3]; 30 mg/kg) of the same compound?
Answer: 2730

Question: What about the “Vertical Movement (SMA), % Change” value ([3]; 30 mg/kg) of the same compound?
Answer: −7.0%

Question: And the “Vertical Movement (SMA), Mean” value ([3]; 30 mg/kg)?
Answer: 45.3

Question: And the “Total Entries (EPM), % Change” value ([4]; 0.03 mg/kg)?
Answer: 1.0%

Question: What about the “Total Entries (EPM), Mean” value ([4]; 0.03 mg/kg) of the same compound?
Answer: 102.0

Question: What about the “Total Entries (EPM), % Change” value ([4]; 10 mg/kg) of the same compound?
Answer: −6.4%

Question: And the “Total Entries (EPM), Mean” value ([4]; 10 mg/kg)?
Answer: 94.5

Question: And the “Total Entries (EPM), % Change” value ([4]; 30 mg/kg)?
Answer: −14.6%

Question: And the “Total Entries (EPM), Mean” value ([4]; 30 mg/kg)?
Answer: 86.3

Question: And the “% Open Arm Entries (EPM), % Change” value ([4]; 0.03 mg/kg)?
Answer: −11.1%

Question: And the “% Open Arm Entries (EPM), Mean” value ([4]; 0.03 mg/kg)?
Answer: 5.14%

Question: What about the “% Open Arm Time (EPM), % Change” value ([4]; 0.03 mg/kg) of the same compound?
Answer: −18.8%

Question: And the “% Open Arm Time (EPM), Mean” value ([4]; 0.03 mg/kg)?
Answer: 6.67%

Question: What about the “% Open Arm Entries (EPM), % Change” value ([4]; 0.1 mg/kg) of the same compound?
Answer: 34.4% and 40.4%

Question: What about the “% Open Arm Entries (EPM), Mean” value ([4]; 0.1 mg/kg) of the same compound?
Answer: 7.77% and 9.17%

Question: And the “% Open Arm Time (EPM), Mean” value ([4]; 0.1 mg/kg)?
Answer: 12.1% and 17.2%

Question: And the “% Open Arm Entries (EPM), % Change” value ([4]; 0.3 mg/kg)?
Answer: 54.8% and 80.7%

Question: What about the “% Open Arm Entries (EPM), Mean” value ([4]; 0.3 mg/kg) of the same compound?
Answer: 8.95% and 11.8%

Question: And the “% Open Arm Time (EPM), Mean” value ([4]; 0.3 mg/kg)?
Answer: 13.8% and 21.8%

Question: And the “% Open Arm Entries (EPM), % Change” value ([4]; 1 mg/kg)?
Answer: 72.1% and 46.6%

Question: And the “% Open Arm Entries (EPM), Mean” value ([4]; 1 mg/kg)?
Answer: 9.95% and 9.57%

Question: What about the “% Open Arm Time (EPM), % Change” value ([4]; 1 mg/kg) of the same compound?
Answer: 80.3% and 89.7%

Question: And the “% Open Arm Time (EPM), Mean” value ([4]; 1 mg/kg)?
Answer: 14.8% and 15.1%

Question: And the “% Open Arm Entries (EPM), % Change” value ([4]; 3 mg/kg)?
Answer: 44.3% and 37.8%

Question: And the “% Open Arm Entries (EPM), Mean” value ([4]; 3 mg/kg)?
Answer: 8.34% and 9.0%

Question: What about the “% Open Arm Time (EPM), Mean” value ([4]; 3 mg/kg) of the same compound?
Answer: 12.4% and 16.9%

Question: What about the “% Open Arm Entries (EPM), % Change” value ([4]; 10 mg/kg) of the same compound?
Answer: 11.1%

Question: And the “% Open Arm Entries (EPM), Mean” value ([4]; 10 mg/kg)?
Answer: 6.4%

Question: What about the “% Open Arm Time (EPM), % Change” value ([4]; 10 mg/kg) of the same compound?
Answer: 0.9%

Question: What about the “% Open Arm Time (EPM), Mean” value ([4]; 10 mg/kg) of the same compound?
Answer: 8.14%

Question: And the “% Open Arm Entries (EPM), % Change” value ([4]; 30 mg/kg)?
Answer: 15.1%

Question: What about the “% Open Arm Entries (EPM), Mean” value ([4]; 30 mg/kg) of the same compound?
Answer: 6.65%

Question: And the “% Open Arm Time (EPM), % Change” value ([4]; 30 mg/kg)?
Answer: −60.9%

Question: And the “% Open Arm Time (EPM), Mean” value ([4]; 30 mg/kg)?
Answer: 3.21%

Question: And the IC50 [5]?
Answer: > 10 µM

Question: What about the IC50 [6] of the same compound?
Answer: > 10 µM
